Patent US4547509A, “5,6,7-Quinoline carbanilates and method of treating ischemic heart disease therewith” (USV Pharmaceutical Corp., priority 1983, dated 1985)

Assays:
rat adipocyte lipolysis = experiment: Rat Adipocyte Assay (epinephrine-stimulated lipolysis, glycerol release); type: cell-based; details: epinephrine 3 μM plus methylisobutylxanthine 10 μM, 1 hour at 37° C.; for IC50: read-out: Adipocyte I50; for inhibition at 30 µM: 30 μM compound, read-out: Adipocyte % Inhib. at 30 μM; for inhibition at 200 µM: 200 μM compound, read-out: Adipocyte % Inhib. at 200 μM
Description: Abdominal fat pads were removed from male rats weighing 200-250 grams and placed in Krebs-bicarbonate buffer gassed with 95% O2 /5% CO2. The fat pads were digested with collagenase for 1 hour at 37° C., washed twice with Krebs-bicarbonate buffer and distributed among a set of 20 ml plastic counting vials. Two such vials received only buffer and cells (4 ml) but no angonists or antagonists. The remaining vials received epinephrine (3 μM) plus the phosphodiesterase inhibitor methylisobutylxanthine (10 μM). Test compounds were dissolved in DMSO or water to a concentration of 20 mM or 40 μl was added to the buffer plus cells in the counting vials. The final compound concentration for routine screening was 200 μM (final concentration of DMSO=1%).
The cells were incubated for 1 hour at 37° C. under 95% O2 /5% CO2 atmosphere. The incubation was stopped by placing the vials in crushed ice. The cells and medium were transferred to test tubes, centrifuged and the cell layer removed by aspiration. The aqueous phase was assayed for glycerol using the enzyme glycerol dehydrogenase.
The glycerol dehydrogenase assay for glycerol depends on the enzyme catalyzed conversion of glycerol to glyceraldehyde and NAD to NADH. The assay can detect as little as 5-10 nanomoles of glycerol. The aqueous phase, following removal of cells, usually contained about 50 to 80 nanomoles of glycerol per 300 μl of assayed sample if no inhibitory activity was present. Samples from the control tubes (no agonist) usually contained 0-5 nanomoles of glycerol per 300 μl of sample.

Canine cardiac lipases [1] = experiment: Myocardial Lipase Assay; type: biochemical; details: triolein emulsion, pH 6.8; read-out: Lipase I50
Canine cardiac lipases [2] = experiment: Myocardial Lipase Assay; type: biochemical; details: 100 μM compound, 3.0% DMSO, triolein emulsion, pH 6.8, tested in duplicate
Description: All compounds were dissolved in DMSO (final concentration 3.0%) and tested in duplicate at a concentration of 100 μm. Canine cardiac lipases were obtained by extracting washed heart membranes with buffer plus heparin and a small amount of Triton X-100 detergent. Because these enzymes are only active at an oil-water interface, the enzyme reaction is run in an oil-water emulsion that contains triolein substrate, Tris buffer (50 mM, pH 6.8) and a small amount of bovine serum albumin (0.5%) added to stabilize the emulsion. A small amount of tritiated triolein was added to the unlabelled triolein substrate. Tritium-labelled oleic acid released by the lipases was extracted into hexane, separated from unreacted triolein and counted in a scintillation counter. Inhibitory agents reduce the amount of radioactivity appearing in the free fatty acid fraction isolated in the extraction procedure.

Row | SMILES | Lipase % Inh. at 100 μM (Canine cardiac lipases [2]) | inhibition at 200 µM (rat adipocyte lipolysis) | also measured
1 | COc1ccccc1NC(=O)Oc1ccc2cccnc2c1 [Example 4, 7-quinolyl-2-methoxy carbanilate] |  |  | IC50 (rat adipocyte lipolysis): 80 µM; IC50 (Canine cardiac lipases [1]): 48 µM
2 | COc1ccc(NC(=O)Oc2ccc3cccnc3c2)cc1 [Example 1] | 60% |  | inhibition at 30 µM (rat adipocyte lipolysis): 0%
3 | CCOC(=O)c1ccc(NC(=O)Oc2ccc3cccnc3c2)cc1 [Example 8, 7-quinolyl-4-carbethoxy carbanilate] | 46% | 18% | 
4 | COc1ccccc1NC(=O)Oc1cccc2ncccc12 [Example 6, 5-quinolyl-2-methoxy carbanilate] |  | 31% | IC50 (Canine cardiac lipases [1]): 48 µM
5 | COc1cccc(NC(=O)Oc2ccc3cccnc3c2)c1 [Example 7, 7-quinolyl-3-methoxy carbanilate] | 52% | 25% | 
6 | COc1ccc(CCNC(=O)Oc2ccc3cccnc3c2)cc1 [Example 12, 7-quinolyl-4-methoxy phenethyl carbamate] | 97% |  | inhibition at 100 µM (rat adipocyte lipolysis; 100 μM compound, read-out: Adipocyte % Inhib. at 100 μM): 84%
7 | COc1ccccc1NC(=O)Oc1ccc2ncccc2c1 [Example 5, 6-quinolyl-2-methoxy carbanilate] |  |  | IC50 (rat adipocyte lipolysis): 30 µM; IC50 (Canine cardiac lipases [1]): 42 µM
8 | O=C(Nc1ccccc1Cl)Oc1ccc2cccnc2c1 [Example 9, 7-quinolyl-2-chloro carbanilate] | 6% |  | 
9 | COc1ccc(NC(=O)Oc2cccc3ncccc23)cc1 [Example 3, 5-quinolyl-4-methoxy carbanilate] | 63% |  | inhibition at 30 µM (rat adipocyte lipolysis): 1%
10 | Cc1ccccc1NC(=O)Oc1ccc2cccnc2c1 [Example 10, 7-quinolyl-2-methyl carbanilate] | 45% | 20% | 
11 | COc1ccc(NC(=O)Oc2ccc3ncccc3c2)cc1 [Example 2, 6-quinolyl-4-methoxy carbanilate] | 64% |  | inhibition at 30 µM (rat adipocyte lipolysis): 8%
12 | O=C(Nc1ccccc1C(F)(F)F)Oc1ccc2cccnc2c1 [Example 11, 7-quinolyl-2-trifluoromethyl carbanilate] | 12% |  | 
